Literature values in patent US20250255845A1, “USE OF INTERLEUKIN (IL)-17A INHIBITOR IN PREPARATION OF MEDICAMENT FOR TREATING INFLAMMATORY DISEASE” (Xiangnan University, priority 2024, published 2025).

Test system: endothelial cells
Conditions: CN101947215A; cited from earlier work

| SMILES | proliferation of endothelial cells / angiogenesis |
| --- | --- |
| COc1ccc(-c2cc(=O)c3c(OC)c(OC)c(OC)cc3o2)cc1OC [sinensetin] | inhibit the proliferation of endothelial cells |
| COc1ccc(-c2cc(=O)c3c(OC)c(OC)c(OC)c(OC)c3o2)cc1OC [nobiletin] | inhibit the proliferation of endothelial cells |
